Assays:
[1] = system: human colorectal adenocarcinoma DLD1 BRCA2-/- cells; experiment: Efficacy of combined use with olaparib in DLD1 BRCA2-/- xenograft tumor model; type: in vivo, NU/NU nude mice; conditions: 10 mg/kg QD intragastric in combination with 50 mg/kg olaparib QD
Text: The anti-tumor activity of the sodium salt of compound I used in combination with olaparib (MCE, 136925) was studied using a DLD1 BRCA2-/- subcutaneous tumor model. 32 female NU/NU nude mice (6-8 weeks old, Beijing Vital River Laboratory Animal Technology Co., Ltd.) were subcutaneously inoculated with 1 × 10^7 human colorectal adenocarcinoma DLD1 BRCA2-/- cells (Horizon- HD105-007). When the tumors grew to 80-100 mm^3, the mice were randomly divided into four groups with eight mice per group: a first group treated with vehicle control (QD) by intragastric administration, a second group treated with a 10 mg/kg solution of the sodium salt of compound I (QD) by intragastric administration, a third group treated with a 50 mg/kg olaparib solution (QD) by intragastric administration, and a fourth group treated with a 10 mg/kg solution of the sodium salt of compound I (QD) by intragastric administration and a 50 mg/kg olaparib solution (QD) by intragastric administration. The vehicle of olaparib was a solution containing 10% DMSO, 50% 2-hydroxypropyl-β-cyclodextrin (Aladdin-F2223139, 60% aqueous solution), and 40% water, the vehicle of the sodium salt of compound I was 10% (w/v) Vitamin E TPGS (Hanhong Chemical-BH-GN0100619-22 1101) aqueous solution, and the vehicle of the vehicle control group was a mixture of the vehicle of olaparib and the vehicle of the sodium salt of compound I (mixed at a volume ratio of 1:1). Mice had free access to food and water throughout the experiment.
Tumor diameters were measured twice weekly using a vernier caliper. The tumor volume (V) was calculated using the following formula: V = 0.5a × b^2, wherein a and b represent the long diameter and short diameter of the tumor, respectively.
Mouse body weight was measured twice weekly.
Two way ANOVA was used to compare the differences in tumor growth trend among groups, and a significant difference was considered when p < 0.05.

SHP-77 = experiment: Combined use with irradiation (IR), Bliss Independence model (Cell Titer Glo, 7 days); type: cell-based; conditions: combination with IR
Method: (§1) DLD-1 colorectal adenocarcinoma cells, NUGC4 gastric cancer cells, NCI-H460 non-small cell lung cancer cells, SHP-77 small cell lung cancer cells, and LNCAP prostate cancer cells were cultured in a 1640 medium containing 10% fetal bovine serum. MDA-MB-436 breast cancer cells were cultured in a DMEM medium containing 10% fetal bovine serum. OVCAR3 ovarian cancer cells were cultured in a 1640 medium containing 20% fetal bovine serum and 10 µg/mL bovine insulin. The cells were all cultured at 37 °C with 5% CO2. Cells at the logarithmic growth phase were available for the experiment.
(§2) 100 µL of the cell medium was added to rows A and H and columns 1 and 12 of a 96-well cell culture plate. Cultured cells were resuspended (adherent cells were digested with trypsin) and counted to give information on cell density and viability. The dilution ratio of the resuspended cells required for inoculating a fixed number of cells into 90 µL of the medium in each culture well was calculated based on the cell density information. After the resuspended cells were diluted with the corresponding medium, 90 µL of the diluted cells were transferred to columns 2-11 of rows B-G of a 96-well cell culture plate using an Eppendorf multi-channel pipette (60 wells in total for each plate). The cell culture plate was incubated overnight in an incubator at 37 °C with 5% CO2.
(§3) The test compound was dissolved in DMSO to give a 10 mM stock solution for later use. In the experiment, the compound was further diluted to the corresponding concentration according to the concentration designed in the experiment, and based on this concentration, 4-fold serial gradient dilution was performed to give a total of 10 dose concentrations (the lowest dose was 0, and other specific concentration values were shown in FIG. 2). 10 µL of the diluted compound was added to the corresponding cell plate well, such that the final concentration of DMSO was 0.25%. The compound was incubated with the cells in an incubator at 37 °C with 5% CO2 for 4 h, and then the cell plate was transferred to Cellrad for irradiation (abbreviated as IR) at different doses (see FIG. 2 for specific dose values). After the irradiation was completed, the cell plate was incubated in an incubator at 37 °C with 5% CO2 for another 7 days, Cell Titer Glo was added at 50 µL/well, and the luminescence value of each well was read using an Envision microplate reader.
(§4) The luminescence value of the well containing only the cell medium was taken as the background (RLUbackground, corresponding cell survival rate to be 0%), the cell well containing only 0.25% DMSO without the compound and the irradiation treatment was taken as the maximum signal (RLUDMSO, corresponding cell survival rate to be 100%), and the luminescence values of the remaining wells containing cells and compounds at different concentrations were taken as RLUsample. The survival rate of each cell well was calculated as follows: Survival rate (%) = (RLUsample−RLUbackground)/(RLUDMSO−RLUbackground) × 100% [formula]
(§5) The interaction between the drug and irradiation (synergistic, independent, or antagonistic) was statistically analyzed by the Bliss Independence model using Combenefit software (Bliss, C.I., Bacteriol. Rev., 1956, 20, 243-258). The model assumes that the drug and irradiation act independently. The theoretical expected action curve of the combination was calculated from the following equation: Bliss effect = effect A + effect B−effect A × effect B [formula] wherein effect A is the effect of drug A at a particular concentration. Effect B is the effect of irradiation at a particular dose.
(§6) The Bliss effect is the expected effect when the combination of the drug and irradiation is administered precisely. A negative Bliss score (δ = observed effect - Bliss effect) indicates an antagonistic effect between the drug and irradiation if the observed effect (i.e., the experimentally measured combined effect) is less than the Bliss effect. […]

NUGC4 = experiment: as above; type: cell-based; conditions: combination with IR
Method: as §1, §2, §3, §4, §5, §6

DLD-1 = experiment: as above; type: cell-based; conditions: combination with IR
Method: as §1, §2, §3, §4, §5, §6

NCI-H460 = experiment: as above; type: cell-based; conditions: combination with IR
Method: as §1, §2, §3, §4, §5, §6

OVCAR3 = experiment: as above; type: cell-based; conditions: combination with IR
Method: as §1, §2, §3, §4, §5, §6

LNCAP = experiment: as above; type: cell-based; conditions: combination with IR
Method: as §1, §2, §3, §4, §5, §6

MDA-MB-436 = experiment: as above; type: cell-based; conditions: combination with IR
Method: as §1, §2, §3, §4, §5, §6

For `COc1ccc(Cl)cc1-c1cc(C)ncc1C(=O)Nc1nc2ncc(-c3ccc(C#N)cc3)nc2s1.[Na]` [Sodium salt of compound I, Sodium Salt of 4-(5-Chloro-2-methoxyphenyl)-N-[6-(4-cyanophenyl)thiazolo[4,5-b]pyrazin-2-yl]-6-methylnicotinamide], the “anti-tumor effect of combination with olaparib” value [1] was “strong synergistic anti-tumor effect”, the tumor volume ([1]; versus either single drug group) was “significantly lower” and the safety ([1]; condition of mice, body weight) was “good safety”. For the same compound, the Combined effect (SHP-77) was “Synergistic”, the Combined effect (NUGC4) was “Synergistic” and the Combined effect (DLD-1) was “Synergistic”. For the same compound, the Combined effect (NCI-H460) was “Synergistic”, the Combined effect (OVCAR3) was “Synergistic” and the Combined effect (LNCAP) was “Synergistic”. For the same compound, the Combined effect (MDA-MB-436) was “Synergistic”.
